According to the NIST ThermoML archive (doi:10.1016/j.jct.2006.08.009):
± gives the expanded uncertainty stated by the source.

Experiment: mn = molality of the nth substance listed, in mol/kg
Conditions: 350 kPa, Liquid; for apparent molar heat capacity: Extra sensitive DSC

O[C@H]1[C@H](O)[C@@H](O)[C@H](O)[C@@H](O)[C@H]1O [cis-1,2,3,5-trans-4,6-cyclohexanehexol] + O
Conditions	apparent molar heat capacity [J/K/mol]	mass density [kg/m3]
278.15 K, m1 = 0.02	255 ± 75	1001.54 ± 0.19
278.15 K, m1 = 0.05	253 ± 30	1004.04 ± 0.19
278.15 K, m1 = 0.0814	256.7 ± 19	–
278.15 K, m1 = 0.1	267.7 ± 16	–
278.15 K, m1 = 0.1028	257.3 ± 16	–
278.15 K, m1 = 0.248	263.1 ± 8.5	1020.11 ± 0.22
278.15 K, m1 = 0.3973	262.1 ± 7.2	1031.74 ± 0.24
278.15 K, m1 = 0.4994	269.8 ± 6.9	1039.85 ± 0.26
283.15 K, m1 = 0.02	287 ± 72	1001.49 ± 0.19
283.15 K, m1 = 0.05	285 ± 28	1003.92 ± 0.19
283.15 K, m1 = 0.0814	292.1 ± 19	–
283.15 K, m1 = 0.1	295.6 ± 16	–
283.15 K, m1 = 0.1028	284.4 ± 15	–
283.15 K, m1 = 0.248	290.5 ± 8.2	1019.58 ± 0.22
283.15 K, m1 = 0.3973	289 ± 6.8	1030.95 ± 0.24
283.15 K, m1 = 0.4994	295.3 ± 6.5	1038.94 ± 0.26
288.15 K, m1 = 0.02	312 ± 67	1000.86 ± 0.19
288.15 K, m1 = 0.05	312 ± 27	1003.27 ± 0.19
288.15 K, m1 = 0.0814	323 ± 18	–
288.15 K, m1 = 0.1	319.7 ± 15	–
288.15 K, m1 = 0.1028	306 ± 15	–
288.15 K, m1 = 0.248	312.7 ± 7.8	1018.73 ± 0.22
288.15 K, m1 = 0.3973	311.2 ± 6.5	1029.97 ± 0.24
288.15 K, m1 = 0.4994	316.4 ± 6.2	1037.9 ± 0.25
293.15 K, m1 = 0.02	332 ± 65	–
293.15 K, m1 = 0.05	332 ± 27	–
293.15 K, m1 = 0.0814	342.6 ± 18	–
293.15 K, m1 = 0.1	339 ± 14	–
293.15 K, m1 = 0.1028	326 ± 14	–
293.15 K, m1 = 0.248	331.5 ± 7.5	–
293.15 K, m1 = 0.3973	329.9 ± 6.3	–
293.15 K, m1 = 0.4994	334.1 ± 6	–
298.15 K, m1 = 0.02	347 ± 62	998.75 ± 0.19
298.15 K, m1 = 0.05	348 ± 25	1001.13 ± 0.18
298.15 K, m1 = 0.0814	358.6 ± 17	1003.66 ± 0.18
298.15 K, m1 = 0.1	354.4 ± 14	–
298.15 K, m1 = 0.1028	343.7 ± 13	–
298.15 K, m1 = 0.248	347.5 ± 7.2	1016.29 ± 0.21
298.15 K, m1 = 0.3973	345.6 ± 6	1027.32 ± 0.23
298.15 K, m1 = 0.4994	349.1 ± 5.8	1035.14 ± 0.25
303.15 K, m1 = 0.02	362 ± 58	–
303.15 K, m1 = 0.05	362.7 ± 24	–
303.15 K, m1 = 0.0814	371.2 ± 16	–
303.15 K, m1 = 0.1	367.4 ± 13	–
303.15 K, m1 = 0.1028	358.9 ± 13	–
303.15 K, m1 = 0.248	361.3 ± 7	–
303.15 K, m1 = 0.3973	359 ± 5.8	–
303.15 K, m1 = 0.4994	361.9 ± 5.6	–
308.15 K, m1 = 0.02	374 ± 57	995.69 ± 0.19
308.15 K, m1 = 0.05	374.4 ± 23	998.05 ± 0.18
308.15 K, m1 = 0.0814	381.2 ± 15	1000.51 ± 0.18
308.15 K, m1 = 0.1	378.5 ± 12	1001.45 ± 0.33
308.15 K, m1 = 0.1028	371.6 ± 12	1001.99 ± 0.2
308.15 K, m1 = 0.248	373.2 ± 6.7	1012.97 ± 0.2
308.15 K, m1 = 0.3973	370.4 ± 5.6	1023.83 ± 0.23
308.15 K, m1 = 0.4994	373 ± 5.5	1031.55 ± 0.24
313.15 K, m1 = 0.02	386 ± 54	–
313.15 K, m1 = 0.05	385.5 ± 22	–
313.15 K, m1 = 0.0814	390.4 ± 14	–
313.15 K, m1 = 0.1	388.5 ± 12	–
313.15 K, m1 = 0.1028	382.8 ± 12	–
313.15 K, m1 = 0.248	383.6 ± 6.5	–
313.15 K, m1 = 0.3973	380.5 ± 5.6	–
313.15 K, m1 = 0.4994	382.7 ± 5.3	–
318.15 K, m1 = 0.02	395 ± 51	991.86 ± 0.2
318.15 K, m1 = 0.05	394.7 ± 21	994.19 ± 0.19
318.15 K, m1 = 0.0814	398.6 ± 14	996.61 ± 0.18
318.15 K, m1 = 0.1	397.3 ± 12	997.52 ± 0.32
318.15 K, m1 = 0.1028	392.5 ± 11	998.07 ± 0.2
318.15 K, m1 = 0.248	392.7 ± 6.4	1008.92 ± 0.2
318.15 K, m1 = 0.3973	389.4 ± 5.5	1019.64 ± 0.22
318.15 K, m1 = 0.4994	391.3 ± 5.3	1027.27 ± 0.23
323.15 K, m1 = 0.02	403 ± 50	–
323.15 K, m1 = 0.05	402.6 ± 20	–
323.15 K, m1 = 0.0814	405.9 ± 13	–
323.15 K, m1 = 0.1	405 ± 11	–
323.15 K, m1 = 0.1028	401 ± 11	–
323.15 K, m1 = 0.248	400.7 ± 6.2	–
323.15 K, m1 = 0.3973	397.3 ± 5.3	–
323.15 K, m1 = 0.4994	398.9 ± 5.1	–
328.15 K, m1 = 0.02	410 ± 47	987.32 ± 0.21
328.15 K, m1 = 0.05	409.6 ± 20	989.63 ± 0.2
328.15 K, m1 = 0.0814	412.6 ± 13	992.01 ± 0.19
328.15 K, m1 = 0.1	411.7 ± 11	992.93 ± 0.32
328.15 K, m1 = 0.1028	408.3 ± 11	993.47 ± 0.22
328.15 K, m1 = 0.248	407.8 ± 6.1	1004.2 ± 0.19
328.15 K, m1 = 0.3973	404.3 ± 5.3	1014.83 ± 0.21
328.15 K, m1 = 0.4994	405.6 ± 5.1	1022.36 ± 0.22
333.15 K, m1 = 0.02	416 ± 46	–
333.15 K, m1 = 0.05	415.7 ± 19	–
333.15 K, m1 = 0.0814	418.7 ± 13	–
333.15 K, m1 = 0.1	417.8 ± 10	–
333.15 K, m1 = 0.1028	414.9 ± 10	–
333.15 K, m1 = 0.248	414.1 ± 6.1	–
333.15 K, m1 = 0.3973	410.5 ± 5.1	–
333.15 K, m1 = 0.4994	411.6 ± 5	–
338.15 K, m1 = 0.02	421 ± 43	982.18 ± 0.22
338.15 K, m1 = 0.05	421.5 ± 18	984.47 ± 0.21
338.15 K, m1 = 0.0814	424.1 ± 12	986.82 ± 0.2
338.15 K, m1 = 0.1	423.2 ± 10	987.73 ± 0.32
338.15 K, m1 = 0.1028	420.6 ± 10	988.27 ± 0.23
338.15 K, m1 = 0.248	419.6 ± 5.9	998.91 ± 0.18
338.15 K, m1 = 0.3973	416.1 ± 5.1	1009.45 ± 0.2
338.15 K, m1 = 0.4994	416.9 ± 5	1016.94 ± 0.21
343.15 K, m1 = 0.02	427 ± 42	–
343.15 K, m1 = 0.05	426.7 ± 17	–
343.15 K, m1 = 0.0814	429 ± 12	–
343.15 K, m1 = 0.1	427.9 ± 10	–
343.15 K, m1 = 0.1028	425.9 ± 9.7	–
343.15 K, m1 = 0.248	424.6 ± 5.8	–
343.15 K, m1 = 0.3973	421 ± 5.2	–
343.15 K, m1 = 0.4994	421.6 ± 5	–
348.15 K, m1 = 0.02	430.7 ± 41	976.46 ± 0.23
348.15 K, m1 = 0.05	431.2 ± 17	978.72 ± 0.22
348.15 K, m1 = 0.0814	433.3 ± 12	981.07 ± 0.22
348.15 K, m1 = 0.1	431.9 ± 9.8	981.98 ± 0.32
348.15 K, m1 = 0.1028	430.3 ± 9.5	982.51 ± 0.24
348.15 K, m1 = 0.248	428.9 ± 5.8	993.1 ± 0.19
348.15 K, m1 = 0.3973	425.2 ± 5	1003.55 ± 0.19
348.15 K, m1 = 0.4994	425.8 ± 4.8	1010.99 ± 0.2
353.15 K, m1 = 0.02	435.4 ± 40	–
353.15 K, m1 = 0.05	435.4 ± 16	–
353.15 K, m1 = 0.0814	437.2 ± 11	–
353.15 K, m1 = 0.1	435.3 ± 9.5	–
353.15 K, m1 = 0.1028	434.1 ± 9.4	–
353.15 K, m1 = 0.248	432.5 ± 5.8	–
353.15 K, m1 = 0.3973	428.9 ± 5	–
353.15 K, m1 = 0.4994	429.3 ± 4.8	–
358.15 K, m1 = 0.02	439.4 ± 40	970.24 ± 0.24
358.15 K, m1 = 0.05	439 ± 16	972.5 ± 0.24
358.15 K, m1 = 0.0814	440.6 ± 11	974.84 ± 0.23
358.15 K, m1 = 0.1	438.3 ± 9.3	975.72 ± 0.32
358.15 K, m1 = 0.1028	437.2 ± 9.2	976.24 ± 0.25
358.15 K, m1 = 0.248	435.7 ± 5.7	986.78 ± 0.21
358.15 K, m1 = 0.3973	432 ± 5	997.2 ± 0.19
358.15 K, m1 = 0.4994	432.4 ± 4.8	–
363.15 K, m1 = 0.02	442.2 ± 40	–
363.15 K, m1 = 0.05	441.7 ± 16	–
363.15 K, m1 = 0.0814	443.4 ± 11	–
363.15 K, m1 = 0.1	440.5 ± 9.2	–
363.15 K, m1 = 0.1028	439.4 ± 9.1	–
363.15 K, m1 = 0.248	438.2 ± 5.7	–
363.15 K, m1 = 0.3973	434.6 ± 5	–
363.15 K, m1 = 0.4994	434.8 ± 4.8	–
368.15 K, m1 = 0.02	–	963.51 ± 0.25
368.15 K, m1 = 0.05	–	965.76 ± 0.25
368.15 K, m1 = 0.0814	–	968.11 ± 0.24
368.15 K, m1 = 0.1	–	969.08 ± 0.27
368.15 K, m1 = 0.1028	–	969.48 ± 0.27
368.15 K, m1 = 0.248	–	980 ± 0.22
368.15 K, m1 = 0.3973	–	990.36 ± 0.2
368.15 K, m1 = 0.4994	–	997.73 ± 0.19
